According to paper PMC2700090 (Virology Journal, 2009):
Peptide text beside a SMILES is read from it.

Target: neuraminidase (NA) (Influenza A virus (A/Hong Kong/1073/99(H9N2)), UniProt Q9ICY2)
Experiment: biochemical
Conditions: read-out: % inhibition at 1000 μM

How did the inhibition at 1000 µM turn out when C[C@@H](O)[C@H](NC(=O)[C@H](CCCCN)NC(=O)[C@H](CO)NC(=O)[C@H](CCCNC(=N)N)NC(=O)[C@H](Cc1ccccc1)NC(=O)[C@H](CC(=O)O)NC(=O)[C@@H](N)CC(N)=O)C(=O)O [L-P1, NDFRSKT] (H-NDFRSKT-OH) was run?
Its inhibition at 1000 µM is roughly 35%.
